# According to ChEMBL document CHEMBL1649369, “Novel 4-aryl-pyrido[1,2-c]pyrimidines with dual SSRI and 5-HT(1A) activity. part 3” (Eur J Med Chem, 2011):
# pKi: −log10 of the molar value. The source made the active and inactive calls. No cut-off for these calls is given here.
# Tests used:
# Mus musculus [1] = assay: Effect on hypothermia in Swiss albino mouse assessed as change in rectal body temperature at 10 mg/kg, ip after 120 mins by inducible hypothermia test; type: functional, organism-based; parameters: dose 10 mg/kg
# [2] = target: Sodium-dependent serotonin transporter (Rattus norvegicus, UniProt P31652); assay: Displacement of [3H]citalopram from SERT in rat cerebral cortex by liquid scintillation counting; type: tissue-based
# Chain of Sodium-dependent serotonin transporter (P31652 whole entry): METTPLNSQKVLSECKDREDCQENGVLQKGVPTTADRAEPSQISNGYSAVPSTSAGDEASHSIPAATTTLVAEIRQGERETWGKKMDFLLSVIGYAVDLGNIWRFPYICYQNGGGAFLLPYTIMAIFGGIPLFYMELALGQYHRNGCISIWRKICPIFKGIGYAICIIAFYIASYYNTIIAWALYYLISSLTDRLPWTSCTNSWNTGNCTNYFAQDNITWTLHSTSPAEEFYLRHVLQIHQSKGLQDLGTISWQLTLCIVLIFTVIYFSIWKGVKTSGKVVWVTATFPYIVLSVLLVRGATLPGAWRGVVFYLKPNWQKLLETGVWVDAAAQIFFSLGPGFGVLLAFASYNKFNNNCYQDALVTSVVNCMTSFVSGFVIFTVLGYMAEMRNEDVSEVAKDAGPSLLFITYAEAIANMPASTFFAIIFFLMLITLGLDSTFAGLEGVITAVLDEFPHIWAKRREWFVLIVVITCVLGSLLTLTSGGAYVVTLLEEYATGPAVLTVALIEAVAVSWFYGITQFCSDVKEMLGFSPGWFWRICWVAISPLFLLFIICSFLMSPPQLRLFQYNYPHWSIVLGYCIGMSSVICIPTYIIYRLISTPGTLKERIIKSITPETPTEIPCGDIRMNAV
# Mus musculus [3] = assay: Effect on hypothermia in Swiss albino mouse assessed as change in rectal body temperature at 20 mg/kg, ip after 90 mins by inducible hypothermia test; type: functional, organism-based; parameters: dose 20 mg/kg
# Mus musculus [4] = assay: Effect on hypothermia in Swiss albino mouse assessed as change in rectal body temperature at 10 mg/kg, ip after 90 mins by inducible hypothermia test; type: functional, organism-based; parameters: dose 10 mg/kg
# Mus musculus [5] = assay: Effect on hypothermia in Swiss albino mouse assessed as change in rectal body temperature at 10 mg/kg, ip after 30 mins by inducible hypothermia test; type: functional, organism-based; parameters: dose 10 mg/kg
# Mus musculus [6] = assay: Effect on hypothermia in Swiss albino mouse assessed as change in rectal body temperature at 5 mg/kg, ip after 90 mins by inducible hypothermia test; type: functional, organism-based; parameters: dose 5 mg/kg
# Mus musculus [7] = assay: Effect on hypothermia in Swiss albino mouse assessed as change in rectal body temperature at 20 mg/kg, ip after 120 mins by inducible hypothermia test; type: functional, organism-based; parameters: dose 20 mg/kg
# Mus musculus [8] = assay: Effect on hypothermia in Swiss albino mouse assessed as change in rectal body temperature at 20 mg/kg, ip after 30 mins by inducible hypothermia test; type: functional, organism-based; parameters: dose 20 mg/kg
# Mus musculus [9] = assay: Effect on hypothermia in Swiss albino mouse assessed as change in rectal body temperature at 10 mg/kg, ip after 60 mins by inducible hypothermia test; type: functional, organism-based; parameters: dose 10 mg/kg
# Mus musculus [10] = assay: Effect on hypothermia in Swiss albino mouse assessed as change in rectal body temperature at 5 mg/kg, ip after 30 mins by inducible hypothermia test; type: functional, organism-based; parameters: dose 5 mg/kg
# Mus musculus [11] = assay: Effect on hypothermia in Swiss albino mouse assessed as change in rectal body temperature at 5 mg/kg, ip after 120 mins by inducible hypothermia test; type: functional, organism-based; parameters: dose 5 mg/kg
# Mus musculus [12] = assay: Effect on hypothermia in Swiss albino mouse assessed as change in rectal body temperature at 20 mg/kg, ip after 60 mins by inducible hypothermia test; type: functional, organism-based; parameters: dose 20 mg/kg
# [13] = target: T1, 5-hydroxytryptamine receptor 1A (Rattus norvegicus, UniProt P19327); assay: Displacement of [3H]8-OH-DPAT from 5-HT1A receptor in rat hippocampus; type: tissue-based
# T1 sequence (P19327 whole entry): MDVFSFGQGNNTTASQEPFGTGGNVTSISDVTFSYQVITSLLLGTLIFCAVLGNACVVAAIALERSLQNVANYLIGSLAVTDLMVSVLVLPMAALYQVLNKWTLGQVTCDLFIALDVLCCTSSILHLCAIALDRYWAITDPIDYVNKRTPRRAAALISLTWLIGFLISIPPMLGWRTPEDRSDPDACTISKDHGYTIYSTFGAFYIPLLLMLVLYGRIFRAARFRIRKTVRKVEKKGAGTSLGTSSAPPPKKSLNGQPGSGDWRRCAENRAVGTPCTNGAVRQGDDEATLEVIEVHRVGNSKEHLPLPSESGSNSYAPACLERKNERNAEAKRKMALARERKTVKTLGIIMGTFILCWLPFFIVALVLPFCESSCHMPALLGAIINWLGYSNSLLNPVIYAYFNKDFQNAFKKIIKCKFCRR
# Mus musculus [14] = assay: Effect on hypothermia in Swiss albino mouse assessed as change in rectal body temperature at 5 mg/kg, ip after 60 mins by inducible hypothermia test; type: functional, organism-based; parameters: dose 5 mg/kg
# Mus musculus [15] = assay: Effect on hypothermia in Swiss albino mouse assessed as change in rectal body temperature at 20 mg/kg, ip dosed 15 mins after 0.1 mg/kg, sc WAY 100635 challenge measured after 60 mins by inducible hypothermia test; type: functional, organism-based
# Mus musculus [16] = assay: Effect on hypothermia in Swiss albino mouse assessed as change in rectal body temperature at 20 mg/kg, ip dosed 15 mins after 0.1 mg/kg, sc WAY 100635 challenge measured after 30 mins by inducible hypothermia test; type: functional, organism-based
# Mus musculus [17] = assay: Reduction of 8-OH-DPAT-induced hypothermia in Swiss albino mouse at 20 mg/kg, ip administered 45 mins prior 8-OH-DPAT challenge measured after 45 mins by inducible hypothermia test; type: functional, organism-based; parameters: dose 20 mg/kg
# Mus musculus [18] = assay: Reduction of 8-OH-DPAT-induced hypothermia in Swiss albino mouse at 20 mg/kg, ip administered 45 mins prior 8-OH-DPAT challenge measured after 15 mins by inducible hypothermia test; type: functional, organism-based; parameters: dose 20 mg/kg
# Mus musculus [19] = assay: Reduction of 8-OH-DPAT-induced hypothermia in Swiss albino mouse at 20 mg/kg, ip administered 45 mins prior 8-OH-DPAT challenge measured after 30 mins by inducible hypothermia test; type: functional, organism-based; parameters: dose 20 mg/kg
# Mus musculus [20] = assay: Reduction of 8-OH-DPAT-induced hypothermia in Swiss albino mouse at 20 mg/kg, ip administered 45 mins prior 8-OH-DPAT challenge measured after 60 mins by inducible hypothermia test; type: functional, organism-based; parameters: dose 20 mg/kg
# Mus musculus [21] = assay: Antidepressant activity in Swiss albino mouse assessed as total immobility time at 20 mg/kg, ip administered 30 mins before test measured 6 mins test session after 2 mins habituation period by forced swimming test; type: functional, organism-based; parameters: dose 20 mg/kg
# Mus musculus [22] = assay: Antidepressant activity in Swiss albino mouse assessed as total immobility time at 10 mg/kg, ip administered 30 mins before test measured 6 mins test session after 2 mins habituation period by forced swimming test; type: functional, organism-based; parameters: dose 10 mg/kg
# Mus musculus [23] = assay: Effect on hypothermia in Swiss albino mouse assessed as change in rectal body temperature at 2.5 mg/kg, ip after 60 mins by inducible hypothermia test; type: functional, organism-based; parameters: dose 2.5 mg/kg
# Mus musculus [24] = assay: Effect on hypothermia in Swiss albino mouse assessed as change in rectal body temperature at 2.5 mg/kg, ip after 120 mins by inducible hypothermia test; type: functional, organism-based; parameters: dose 2.5 mg/kg
# Mus musculus [25] = assay: Effect on hypothermia in Swiss albino mouse assessed as change in rectal body temperature at 5 mg/kg, ip dosed 15 mins after 0.1 mg/kg, sc WAY 100635 challenge measured after 30 mins by inducible hypothermia test; type: functional, organism-based
# Mus musculus [26] = assay: Effect on hypothermia in Swiss albino mouse assessed as change in rectal body temperature at 2.5 mg/kg, ip after 90 mins by inducible hypothermia test; type: functional, organism-based; parameters: dose 2.5 mg/kg
# Mus musculus [27] = assay: Effect on hypothermia in Swiss albino mouse assessed as change in rectal body temperature at 5 mg/kg, ip dosed 15 mins after 0.1 mg/kg, sc WAY 100635 challenge measured after 60 mins by inducible hypothermia test; type: functional, organism-based
# Mus musculus [28] = assay: Effect on hypothermia in Swiss albino mouse assessed as change in rectal body temperature at 2.5 mg/kg, ip after 30 mins by inducible hypothermia test; type: functional, organism-based; parameters: dose 2.5 mg/kg
Compound,deltaT (Mus musculus [1]) [°C],pKi [2],deltaT (Mus musculus [3]) [°C],deltaT (Mus musculus [4]) [°C],deltaT (Mus musculus [5]) [°C],deltaT (Mus musculus [6]) [°C],deltaT (Mus musculus [7]) [°C],deltaT (Mus musculus [8]) [°C],deltaT (Mus musculus [9]) [°C],deltaT (Mus musculus [10]) [°C],deltaT (Mus musculus [11]) [°C],deltaT (Mus musculus [12]) [°C],pKi [13],deltaT (Mus musculus [14]) [°C],deltaT (Mus musculus [15]) [°C],deltaT (Mus musculus [16]) [°C],also measured
COc1ccccc1-c1c2n(c(=O)n(CCCCN3CCC(c4c[nH]c5ccccc45)CC3)c1=O)CCCC2,-0.2,6.87,-0.2,-0.3,-0.9,-0.3,0,-0.7,-0.5,-0.8,-0.2,-0.5,7.70,-0.5,-0.1,-0.3,
O=c1c(-c2ccc(F)cc2)c2n(c(=O)n1CCCCN1CCC(c3c[nH]c4ccccc34)CC1)CCCC2,,7.33,,,,,,,,,,,7.21,,,,deltaT (Mus musculus [17]): -1.1 °C; deltaT (Mus musculus [18]): -0.7 °C; deltaT (Mus musculus [19]): -1.6 °C; deltaT (Mus musculus [20]): -0.6 °C
COc1ccc(-c2c3n(c(=O)n(CCCCN4CCC(c5c[nH]c6ccccc56)CC4)c2=O)CCCC3)cc1,-0.2,7.30,-0.5,-0.3,-0.8,-0.2,-0.3,-1.6,-0.5,-0.6,-0.2,-0.9,7.49,-0.2,-0.2,-0.3,Activity (Mus musculus [21]): inactive; Activity (Mus musculus [22]): inactive
O=c1c(-c2ccccc2F)c2n(c(=O)n1CCCCN1CCC(c3c[nH]c4ccccc34)CC1)CCCC2,,7.16,,,,-0.5,,,,-1.3,-0.3,,7.38,-0.8,,,deltaT (Mus musculus [23]): -0.2 °C; deltaT (Mus musculus [24]): -0.1 °C; deltaT (Mus musculus [25]): -0.2 °C; deltaT (Mus musculus [26]): -0.1 °C; deltaT (Mus musculus [27]): -0.1 °C; deltaT (Mus musculus [28]): -0.5 °C
